These results are taken from US9682995B2, “Amino-substituted isothiazoles” (BAYER PHARMA AKTIENGESELLSCHAFT, priority 2013, dated 2017).

Bounds are passed on as bounds.

The target in one assay is human Bub1 (Homo sapiens (Human), UniProt O43683). Briefly: Bub1 kinase assay (TR-FRET). The assay is classed as biochemical. The settings on record: 10 μM ATP; read-out: Bub1 avg (IC50 [mol/l]). The method in brief: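 His6-tagged human Bub1 catalytic domain (aa 704-1085, insect-cell expressed, ~200 ng/ml) preincubated with compound 15 min, then reacted 60 min at 22 °C with 10 μM ATP and 1 μM biotinylated peptide (final) in pH 7.5 Tris buffer. Phosphopeptide detected by TR-FRET 665/620 ratio, normalised to no-inhibitor and no-enzyme controls.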

Assay [1] concerns spindle assembly checkpoint. Briefly: SAC-Formation - Nocodazole-Induced Assay. It is filed as cell-based. To be noted: Homo sapiens; HeLa cells, nocodazole 0.1 μg/ml, 24 h, phosphorylated histone H3 on serine 10. In short, it runs like this:
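HeLa cells were given nocodazole at 0.1 μg/ml final together with compounds (0.005–20 μM, 0.5% DMSO) for 24 h at 37° C. Mitotic cells were counted by phospho-histone H3 Ser10 immunostaining, with cell number from HOECHST 33342, by high-content imaging. The loss of mitotic cells was fitted with a four-parameter Hill equation.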

Sequence of human Bub1 (O43683 704-1085): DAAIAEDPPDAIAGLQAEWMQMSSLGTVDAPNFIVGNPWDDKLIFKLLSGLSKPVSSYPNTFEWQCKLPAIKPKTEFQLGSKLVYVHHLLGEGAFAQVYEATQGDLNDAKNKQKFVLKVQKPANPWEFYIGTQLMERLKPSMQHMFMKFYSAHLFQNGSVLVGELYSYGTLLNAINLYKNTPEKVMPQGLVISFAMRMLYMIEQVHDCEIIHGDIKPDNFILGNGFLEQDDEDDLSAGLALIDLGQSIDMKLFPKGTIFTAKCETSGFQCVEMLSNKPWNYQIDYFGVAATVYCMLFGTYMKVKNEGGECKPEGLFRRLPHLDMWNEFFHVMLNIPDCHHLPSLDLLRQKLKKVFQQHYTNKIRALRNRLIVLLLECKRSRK

For the molecule `Cc1nsc(Nc2nc3c(C(F)(F)F)cccc3s2)c1C(=O)Nc1ccc(Cl)c(Cl)c1` [Example 102, N-(3,4-Dichlorophenyl)-3-methyl-5-{[4-(trifluoromethyl)-1,3-benzothiazol-2-yl]amino}-1,2-thiazole-4-carboxamide], the results for the IC50 (at human Bub1; in assay [1]) were above 20000 nM and 220 nM, respectively.
The matching figures for `Cc1nsc(Nc2nc3c(C(F)(F)F)ccnc3s2)c1C(=O)Nc1ccc(Cl)c(F)c1` [Example 103, N-(4-Chloro-3-fluorophenyl)-3-methyl-5-{[7-(trifluoromethyl)[1,3]thiazolo[5,4-b]pyridin-2-yl]amino}-1,2-thiazole-4-carboxamide]: above 20000 nM and 240 nM.
Taken in the same sequence, the figures for `Cc1nsc(Nc2cncc(C(=O)N(C)C)n2)c1C(=O)Nc1ccc(F)c(F)c1` [Example 104, 6-({4-[(3,4-Difluorophenyl)-carbamoyl]-3-methyl-1,2-thiazol-5-yl}amino)-N,N-dimethyl-pyrazine-2-carboxamide] were above 20000 nM and 530 nM.
As to `Cc1nsc(Nc2cncc(N(C)C)n2)c1C(=O)Nc1ccc(F)c(F)c1` [Example 105, N-(3,4-Difluorophenyl)-5-{[6-(dimethylamino)pyrazin-2-yl]amino}-3-methyl-1,2-thiazole-4-carboxamide], the IC50 is above 20000 nM at human Bub1 and 2000 nM in assay [1].
The matching figures for `Cc1nsc(Nc2cncc(C(=O)N3CCCC3)n2)c1C(=O)Nc1ccc(F)c(F)c1` [Example 106, N-(3,4-Difluorophenyl)-3-methyl-5-{[6-(pyrrolidin-1-ylcarbonyl)pyrazin-2-yl]amino}-1,2-thiazole-4-carboxamide]: above 20000 nM and 260 nM.
Taken in the same sequence, the figures for `Cc1nsc(Nc2cncc(C(=O)N3CCOCC3)n2)c1C(=O)Nc1ccc(F)c(F)c1` [Example 107, N-(3,4-Difluorophenyl)-3-methyl-5-{[6-(morpholin-4-ylcarbonyl)pyrazin-2-yl]amino}-1,2-thiazole-4-carboxamide] were above 20000 nM and 340 nM.
With `CNC(=O)c1ccnc(Nc2snc(C)c2C(=O)Nc2ccc(F)c(F)c2)c1` [Example 108, 2-({4-[(3,4-Difluorophenyl)-carbamoyl]-3-methyl-1,2-thiazol-5-yl}amino)-N-methyliso-nicotinamide], the IC50 was above 20000 nM at human Bub1 and 1800 nM in assay [1].
The matching figures for `Cc1nsc(Nc2cnc(C(=O)N(C)C)cn2)c1C(=O)Nc1ccc(F)c(F)c1` [Example 109, 5-({4-[(3,4-Difluorophenyl)carbamoyl]-3-methyl-1,2-thiazol-5-yl}amino)-N,N-dimethylpyrazine-2-carboxamide]: above 20000 nM and 1100 nM.
Taken in the same sequence, the figures for `Cc1nsc(Nc2ccc(C#N)cn2)c1C(=O)Nc1ccc(OC(C)C)nc1` [Example 110, 5-[(5-Cyanopyridin-2-yl)amino]-N-(6-isopropoxyridin-3-yl)-3-methyl-1,2-thiazole-4-carboxamide] were above 20000 nM and 650 nM.
Consider `Cc1nsc(Nc2cc(C#N)ccn2)c1C(=O)Nc1ccc(Oc2ccccc2)nc1` [Example 111, 5-[(4-Cyanopyridin-2-yl)amino]-3-methyl-N-(6-phenoxypyridin-3-yl)-1,2-thiazole-4-carboxamide], for which the IC50 is above 20000 nM at human Bub1 and 200 nM in assay [1].
Taken in the same sequence, the figures for `Cc1nsc(Nc2cnc3ccccc3n2)c1C(=O)Nc1ccc(Oc2ccccc2)nc1` [Example 112, 3-Methyl-N-(6-phenoxypyridin-3-yl)-5-(quinoxalin-2-ylamino)-1,2-thiazole-4-carboxamide] were above 20000 nM and 18 nM.
Consider `Cc1nsc(Nc2cnc3ccccc3n2)c1C(=O)Nc1ccc(Oc2ccc(F)cc2F)nc1` [Example 113, N-[6-(2,4-Difluorophenoxy)pyridin-3-yl]-3-methyl-5-(quinoxalin-2-ylamino)-1,2-thiazole-4-carboxamide], for which the IC50 is above 20000 nM at human Bub1 and 470 nM in assay [1].
The matching figures for `Cc1nsc(Nc2cnc3ccccc3n2)c1C(=O)Nc1ccc(OC2CCCCC2)nc1` [Example 115, N-[6-(Cyclohexyloxy)pyridin-3-yl]-3-methyl-5-(quinoxalin-2-ylamino)-1,2-thiazole-4-carboxamide]: above 20000 nM and 90 nM.
The matching figures for `COc1ccc(Oc2ccc(NC(=O)c3c(C)nsc3Nc3cnc4ccccc4n3)cn2)cc1` [Example 116, N-[6-(4-Methoxyphenoxy)pyridin-3-yl]-3-methyl-5-(quinoxaline-2-ylamino)-1,2-thiazole-4-carboxamide]: above 20000 nM and 1600 nM.
The matching figures for `COc1ccc(Oc2ccc(NC(=O)c3c(C)nsc3Nc3cc(C#N)ccn3)cn2)cc1` [Example 117, 5-[(4-Cyanopyridin-2-yl)amino]-N-[6-(4-methoxyphenoxy)pyridin-3-yl]-3-methyl-1,2-thiazole-4-carboxamide]: above 20000 nM and 270 nM.
For the molecule `Cc1nsc(Nc2cc(C#N)ccn2)c1C(=O)Nc1ccc(OC2CCCCC2)nc1` [Example 118, 5-[(4-Cyanopyridin-2-yl)amino]-N-[6-(cyclohexyloxy)pyridin-3-yl]-3-methyl-1,2-thiazole-4-carboxamide], the IC50 was above 20000 nM on human Bub1 and 60 nM in assay [1].
The matching figures for `CCOc1ccc(NC(=O)c2c(C)nsc2Nc2cnc3ccccc3n2)cn1` [Example 119, N-(6-Ethoxypyridin-3-yl)-3-methyl-5-(quinoxalin-2-ylamino)-1,2-thiazole-4-carboxamide]: above 20000 nM and 88 nM.
Taken in the same sequence, the figures for `COc1ncc(NC(=O)c2c(C)nsc2Nc2ccc(C#N)cn2)cc1C` [Example 120, 5-[(5-Cyanopyridin-2-yl)amino]-N-(6-methoxy-5-methylpyridin-3-yl)-3-methyl-1,2-thiazole-4-carboxamide] were above 20000 nM and 270 nM.
The matching figures for `COc1ncc(NC(=O)c2c(C)nsc2Nc2cnc3ccccc3n2)cc1C` [Example 121, N-(6-Methoxy-5-methylpyridin-3-yl)-3-methyl-5-(quinoxalin-2-ylamino)-1,2-thiazole-4-carboxamide]: above 20000 nM and 130 nM.
`Cc1nsc(Nc2cnc3ccccc3n2)c1C(=O)Nc1ccc(OC(C)C)nc1` [Example 122, N-(6-Isopropoxypyridin-3-yl)-3-methyl-5-(quinoxalin-2-ylamino)-1,2-thiazole-4-carboxamide]: the IC50 is above 20000 nM on human Bub1 and 59 nM in assay [1].
